For 80 compounds, viability results are on record in paper PMC12040169 (PLOS Biology, 2025).

The nature of the data set: in vitro. The note with it: human, hela cells, % viability.

Take `COc1cc(CNC(C)(C)CO)c(Cl)cc1OC(C)C` [CBK269542]: the viability at 28.5 h, 10 µM is 89.9%.

For the compound `CC(=O)c1cccc(-c2cnc(Nc3ccc(N4CCOCC4)cc3)c3nccn23)c1` [CBK091217], the viability at 28.5 h, 10 µM was determined as 91.5%.

In the case of `CC(C)[C@H](CO)n1c(=O)[nH]c2ncc(-c3cccc(CO)c3)nc21` [CBK065001], the viability at 28.5 h, 10 µM came out at 96.1%.

In the case of `O=c1ccn([C@@H]2O[C@H](CO)[C@H](O)C2O)c(=S)[nH]1` (some centres unmarked) [CBK201210], the viability at 28.5 h, 10 µM amounted to 91.8%.

Consider `Cc1nn(C)c(C)c1CN(C)C(=O)CCC1CCCO1` (centres unmarked) [CBK283078], for which the viability at 28.5 h, 10 µM was 99.7%.

For `Cc1ccc(NS(=O)(=O)c2ccc(OC(F)(F)F)cc2)nc1` [CBK043577], the viability at 28.5 h, 10 µM stood at 95.8%.

As for `O=S(=O)(c1cccs1)n1ccc2c(CN3CCCC3)cccc21` [CBK116195T], the viability at 28.5 h, 10 µM came to 89.3%.

With `CCc1nc2ccc(C(=O)NCc3ccc4c(c3)OCO4)cn2c1N(CCN(C)C)CC1CC1` [CBK145472], the viability at 28.5 h, 10 µM is 97.1%.

In the case of `COCCNC(=O)c1cnn2c(C)c(Cc3ccccc3C)c(C)nc12` [CBK160253], the viability at 28.5 h, 10 µM turned out to be 94.5%.

With `CC(C)Oc1ccc(CCNC(=N)NC(=N)N)cc1Cl` [CBK263966], the viability at 28.5 h, 10 µM turned out to be 91.5%.

As to `Cc1[nH]n(-c2nc3ccccc3o2)c(=O)c1Cc1c(Cl)cccc1Cl` [CBK085382], the viability at 28.5 h, 10 µM is 96.5%.

Turning to `COc1ccc(-c2cc(C(F)(F)F)nc(S(=O)(=O)CCC(=O)Nc3ccc(C)cc3)n2)cc1` [CBK266235], the viability at 28.5 h, 10 µM came to 105%.

As for `O=C(O)C12CC3CC(C(=O)O)(C1)CC(C(=O)O)(C3)C2` [CBK263442], the viability at 28.5 h, 10 µM was found to be 84.4%.

With `COc1ccc([N+](=O)[O-])c(Sc2cccs2)n1` [CBK002625], the viability at 28.5 h, 10 µM was 84.9%.

Regarding `Nc1cc(=O)[nH]c(SCC(=O)Nc2ccc(S(N)(=O)=O)cc2)n1` [CBK265021], the viability at 28.5 h, 10 µM came to 91.2%.

For the compound `COC(=O)c1cccc2c3c(n(Cc4ccccc4)c12)CCCC3=O` [CBK036304], the viability at 28.5 h, 10 µM (bulk resorufin, single well) stood at 94.7%.

As to `Cc1ccc2c(N)c(C(=O)c3cccs3)sc2n1` [CBK115369], the viability at 28.5 h, 10 µM was determined as 92.5%.

Turning to `CCN(CC)C(=O)CN1CCN(c2nccnc2OCc2cccnc2)CC1` [CBK083140], the viability at 28.5 h, 10 µM was 100%.

As to `CC(=O)NCCSc1nc2ccccc2nc1NC(C)C` [CBK105618], the viability at 28.5 h, 10 µM is 102%.

As to `CC(Oc1ccc(F)cc1)C(=O)Nc1ccc(S(N)(=O)=O)cc1` (centres unmarked) [CBK265506], the viability at 28.5 h, 10 µM amounted to 92.3%.

Consider `O=C1CCC(=O)N1CCOc1nccnc1N1CCN(Cc2ccccc2)CC1` [CBK084288], for which the viability at 28.5 h, 10 µM stood at 87.9%.

For `O=C(O)c1cccc(NC(=O)c2ccc(COc3ccc(-c4ccccc4)cc3)o2)c1` [CBK299778], the viability at 28.5 h, 10 µM was 105%.

On to `COc1ncc(-c2cncc(N3CCN(c4ccc(OC)c(OC)c4)CC3)n2)c(OC)n1` [CBK065169], for which the viability at 28.5 h, 10 µM came out at 89.5%.

Consider `CN(C)CCN1CCN(c2nc(-c3cccnc3)cnc2N)CC1` [CBK063503], for which the viability at 28.5 h, 10 µM came to 93.6%.

Regarding `Cc1cccc(Cn2cnc(NC(=O)Nc3cccc(Cl)c3C)n2)c1` [CBK266876], the viability at 28.5 h, 10 µM worked out at 89.5%.

`O=C(O)CCCC(=O)Nc1ccccc1-c1nc2ccccc2[nH]c1=O` [CBK280451]: the viability at 28.5 h, 10 µM is 85.9%.

For the compound `COc1cccc(-c2csc(NS(=O)(=O)c3ccc(C)c(C(=O)O)c3)n2)c1` [CBK299803], the viability at 28.5 h, 10 µM is 99.1%.

As to `O=C(NCCCNC(=O)c1ccc(Cl)cc1Cl)c1ccncc1` [CBK269372], the viability at 28.5 h, 10 µM stood at 89.7%.

Take `COc1ccc2[nH]cc(CCNC(=O)COc3ccc(O)cc3)c2c1` [CBK116227]: the viability at 28.5 h, 10 µM was 82%.

For the compound `CCN(CC)S(=O)(=O)c1ccc(C)c(C(=O)Oc2cccc(-c3cnc4ccccc4n3)c2)c1` [CBK264577], the viability at 28.5 h, 10 µM amounted to 85.8%.

As to `FC1(F)Oc2ccc(Nc3cncc(-c4cccs4)n3)cc2OC1(F)F` [CBK065727], the viability at 28.5 h, 10 µM was determined as 110%.

For `c1ccc(CCCN2CCN(Cc3ccccc3)CC2)cc1` [CBK261878], the viability at 28.5 h, 10 µM was 90.1%.

As to `Nn1cnn2c(SCc3ccc(Cl)cc3)nnc12` [CBK263193], the viability at 28.5 h, 10 µM amounted to 106%.

In the case of `Cc1ccc(C(=O)NCc2ccc(-c3n[nH]cc3C(=O)N(C)c3ccccc3)cc2)cc1` [CBK285600], the viability at 28.5 h, 10 µM stood at 98.7%.

As for `CN1CCN(S(=O)(=O)c2ccc(-c3cc(C(F)(F)F)on3)s2)CC1` [CBK057780], the viability at 28.5 h, 10 µM turned out to be 96%.

Consider `Cc1cc(C(=O)C(C)Oc2ccc(-c3nnco3)cc2)c(C)n1-c1ccccc1` (centres unmarked) [CBK297104], for which the viability at 28.5 h, 10 µM is 101%.

As to `CC1=NN(C(=O)NS(=O)(=O)c2ccccc2Cl)C(C)(C)C1` [CBK018947], the viability at 28.5 h, 10 µM was 120%.

Take `CN(C(=O)CN1CCN(c2cc(-c3cccc([N+](=O)[O-])c3)ncn2)CC1)c1ccccc1` [CBK091137]: the viability at 28.5 h, 10 µM worked out at 103%.

As to `CCC(CN1CCCC1)NC(=O)C1CC(=O)Nc2ccccc21` (centres unmarked) [CBK282757], the viability at 28.5 h, 10 µM is 90.6%.

Consider `O=C(c1nccs1)C1CCN(C(=O)Cc2cccc(F)c2)CC1` [CBK284208], for which the viability at 28.5 h, 10 µM was determined as 94.6%.

Consider `COc1ccc(Cl)cc1N1CCN(C/C=C/c2ccccc2)CC1` [CBK126415], for which the viability at 28.5 h, 10 µM came to 90.3%.

Regarding `O=S(=O)(c1ccc(Oc2ccc(S(=O)(=O)N3CCCCCC3)cc2)cc1)N1CCCCCC1` [CBK261729], the viability at 28.5 h, 10 µM is 99%.

In the case of `Cc1cc(NC(=O)c2cncnc2)c2ccccc2n1` [CBK122734], the viability at 28.5 h, 10 µM was determined as 103%.

For `O=C(O)COc1ccc(Br)cc1C(c1c[nH]c2ccccc12)c1c[nH]c2ccccc12` [CBK265720], the viability at 28.5 h, 10 µM came to 94.6%.

Turning to `FC(F)(F)c1ccc(SCc2cccs2)nc1` [CBK103711], the viability at 28.5 h, 10 µM was found to be 96.3%.

`O=C(NCc1ccccn1)c1ccc(CNS(=O)(=O)c2cccc(Cl)c2)cc1` [CBK267297]: the viability at 28.5 h, 10 µM stood at 100%.

In the case of `CCCCCCN1CCN(c2nccn(CCOc3cc(F)c(F)cc3F)c2=O)CC1` [CBK045889C], the viability at 28.5 h, 10 µM worked out at 113%.

As for `CC(CNC(=O)C1CCCC1)N1CCc2ccccc2C1` (centres unmarked) [CBK304555], the viability at 28.5 h, 10 µM stood at 94.2%.

As for `OCc1c(-c2ccc(F)cc2)[nH]c2ncccc12` [CBK283328], the viability at 28.5 h, 10 µM is 86.5%.

Regarding `O=C(O)c1cccc(C(=O)Nc2cccc(NC(=O)C3CCCO3)c2)c1` (centres unmarked) [CBK268566], the viability at 28.5 h, 10 µM was found to be 108%.

With `O=C(CCCCCN1C(=O)c2ccccc2C1=O)NO` [CBK288514], the viability at 28.5 h, 10 µM is 80.2%.

On to `COc1cccc2cc(C(=O)NCCCSC)oc12` [CBK149793], for which the viability at 28.5 h, 10 µM stood at 99.6%.

Consider `CCN(C(C)COC)S(=O)(=O)c1cccc(Cl)c1Cl` (centres unmarked) [CBK305146], for which the viability at 28.5 h, 10 µM was 98.4%.

For `COc1cc(/C=C2/C(=O)N(c3nnn[nH]3)N=C2C)ccc1OC(=O)c1cccs1` [CBK266641], the viability at 28.5 h, 10 µM stood at 112%.

As to `c1ccc(-n2nnnc2SCc2cccc(CSc3nnnn3-c3ccccc3)n2)cc1` [CBK263258], the viability at 28.5 h, 10 µM came to 90.4%.

As to `COc1cc(CN2CCC(C(=O)c3ccc(F)cc3)CC2)cc(OC)c1OC` [CBK149112], the viability at 28.5 h, 10 µM is 99.5%.

Consider `Cc1c(C#N)c2ccc(O)c(CN(C)C)c2n1-c1ccccc1` [CBK094247C], for which the viability at 28.5 h, 10 µM was 98.2%.

On to `Nc1ncc(-c2ccc(C(=O)O)cc2)nc1-c1ccc(C(=O)N2CCOCC2)cc1` [CBK084518], for which the viability at 28.5 h, 10 µM was 90.8%.

As to `Cc1cc(NC(=O)COc2ccc(Cl)cc2)nc2c1c(=O)oc1ccccc12` [CBK291230], the viability at 28.5 h, 10 µM worked out at 92.9%.

For the compound `Cc1ccc(C(=O)CCC(=O)N2CCCC2c2ccc(F)cc2)cc1` (centres unmarked) [CBK297885], the viability at 28.5 h, 10 µM was found to be 96.2%.

`Cn1c(=O)n(CC(=O)NC23CC4CC(CC(C4)C2)C3)c2cccnc21` [CBK283795]: the viability at 28.5 h, 10 µM amounted to 81.7%.

As for `CN1CCN(c2cnn(CCCOc3ccccc3)c(=O)c2)CC1` [CBK307203], the viability at 28.5 h, 10 µM was found to be 100%.

`Cc1cc(C)cc(N(CC(=O)O)S(C)(=O)=O)c1` [CBK263775]: the viability at 28.5 h, 10 µM is 111%.

With `COc1cc(C(C)=O)ccc1OCCCN1CCC(O)(C(=O)c2ccc(Cl)c(Cl)c2)CC1` [CBK024875C], the viability at 28.5 h, 10 µM was found to be 97.6%.

With `CCOc1cccc(CNn2cnnc2)c1OCc1ccccc1` [CBK265824], the viability at 28.5 h, 10 µM was determined as 81.2%.

`Brc1csc(CNc2ccc3cn[nH]c3c2)c1` [CBK021216]: the viability at 28.5 h, 10 µM came to 75.1%.

Consider `Cc1ccccc1OCc1nnc(SCc2nnc(-c3ccccc3)o2)n1C` [CBK267406], for which the viability at 28.5 h, 10 µM turned out to be 90.1%.

Regarding `O=C(c1ccco1)N(CCCn1ccnc1)c1nc2c(F)cccc2s1` [CBK287758], the viability at 28.5 h, 10 µM was 86.4%.

In the case of `O=C(CCn1cnc2ccccc21)N1CCC(c2ccncc2)CC1` [CBK283522], the viability at 28.5 h, 10 µM worked out at 102%.

For the compound `O=C(OCc1ccc2sccc2c1)N1CCOCC1` [CBK200163], the viability at 28.5 h, 10 µM is 101%.

Regarding `Cc1nn(Cc2nnn(CC(=O)O)n2)c(C)c1Br` [CBK009457], the viability at 28.5 h, 10 µM came to 101%.

As for `COC(=O)c1ccsc1NS(=O)(=O)c1ccc(Br)cc1` [CBK039058], the viability at 28.5 h, 10 µM came to 94.1%.

In the case of `CC1(C)CC(NC(=O)C(=O)NC2CC(C)(C)NC(C)(C)C2)CC(C)(C)N1` [CBK261951], the viability at 28.5 h, 10 µM was found to be 98.9%.

Consider `O=C(c1nccs1)C1CCN(C(=O)C2CCCCC2)CC1` [CBK284175], for which the viability at 28.5 h, 10 µM came to 107%.

Consider `CC(C)(C)OC(=O)N1CCC(C(=O)NCc2ccccn2)CC1` [CBK305696], for which the viability at 28.5 h, 10 µM was determined as 103%.

Turning to `O=C(Cc1ccccc1)Nc1nnc(-c2ccccc2)o1` [CBK287597], the viability at 28.5 h, 10 µM stood at 95.4%.

As to `Cc1nn(CC(=O)N2CCCCC2)c(=O)c2cc3ccsc3n12` [CBK284078], the viability at 28.5 h, 10 µM worked out at 91%.

Regarding `CN1CCN(c2nc(-c3ccoc3)cnc2N)CC1` [CBK063362], the viability at 28.5 h, 10 µM was 103%.

In the case of `O=C(O)CC(Cc1ccccc1)C(=O)Nc1ccc(F)cc1` (centres unmarked) [CBK286841], the viability at 28.5 h, 10 µM was determined as 96.1%.

Turning to `CN1C(=O)c2ccccc2OCCCCC[C@H]2[C@@H]1CCCN2C(=O)CN1CCN(CCO)CC1` [CBK292144], the viability at 28.5 h, 10 µM was 99%.

The viability is a read-out of living cells in per cent, often relative to untreated cells.
